Data set [1] addresses T1, memapsin 2 (Cricetulus griseus, UniProt G3IAK4).
T1 construct: endogenous in cells; host or cells: Chinese hamster ovary cells over-expressing human APP695 (London + Swedish)
As to the kind of experiment: Cellular Aβ IC50 determination (Aβ40 sandwich ELISA). Type of data set: cell-based. To be noted: Chinese hamster ovary cells over-expressing human APP695 (London and Swedish mutations), Aβ40, 24 h; read-out: M2 IC50. The protocol: The potency of compounds against memapsin 2 activity was determined in a cellular assay of Aβ production. […] Chinese hamster ovary cells that over-express human APP695 with the London and Swedish mutations were seeded in multi-well plates at 10% confluency. Compounds are dissolved in DMSO to concentrations near 1 mM, and diluted into culture media to a final concentration near 4 μM (final 0.4% DMSO). Compounds were diluted serially and applied to cells in multi-well plates 48 h after seeding. Incubation was continued in 5% CO2 at 37° C. for 24 h. Aliquots were removed and assayed for Aβ40 content using a sandwich ELISA (BioSource International). Amount of Aβ40 over the range of concentration of compounds, relative to control incubations, were fit to a 4-parameter IC50 model.

In data set [2] the target is T2, CYP3A4 (Homo sapiens, UniProt P08684).
T2 construct: with human liver microsomes (HLM) at a final protein concentration of 0.1 mg/mL protein; from tissue; host or cells: human liver microsomes
T2 sequence (P08684 whole entry): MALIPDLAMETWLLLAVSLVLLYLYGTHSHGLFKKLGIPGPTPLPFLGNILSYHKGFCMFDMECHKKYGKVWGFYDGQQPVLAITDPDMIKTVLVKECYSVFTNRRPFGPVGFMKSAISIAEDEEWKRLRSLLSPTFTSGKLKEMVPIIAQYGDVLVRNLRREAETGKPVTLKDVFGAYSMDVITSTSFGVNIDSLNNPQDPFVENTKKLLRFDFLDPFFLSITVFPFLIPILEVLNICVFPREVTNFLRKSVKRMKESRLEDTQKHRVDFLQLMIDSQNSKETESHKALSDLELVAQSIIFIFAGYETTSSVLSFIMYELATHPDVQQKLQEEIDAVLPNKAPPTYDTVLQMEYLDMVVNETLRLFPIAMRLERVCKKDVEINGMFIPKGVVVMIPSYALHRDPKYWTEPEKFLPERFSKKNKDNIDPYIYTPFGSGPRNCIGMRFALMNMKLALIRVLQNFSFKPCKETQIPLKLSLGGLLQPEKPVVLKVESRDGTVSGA
Description: Determination of CYP3A4 inhibition (midazolam metabolism). It is filed as in vitro ADME. To be noted: human liver microsomes, midazolam substrate. How it is done: To evaluate the drug-drug interaction potential for compounds, the potency to inhibit the major metabolic cytochrome CYP450 isoform 3A4 was assessed. The inhibition constant Ki was determined for inhibition of the metabolism of midazolam, a CYP3A4 substrate.
CYP3A4 Ki assays were performed following a recently published protocol with slight modifications (Di, L., Kerns, E. H., Li, S. Q., and Carter, G. T. (2007) Comparison of cytochrome P450 inhibition assays for drug discovery using human liver microsomes with LC-MS, rhCYP450 isozymes with fluorescence, and double cocktail with LC-MS. International Journal of Pharmaceutics 335: 1-11). The P450 inhibition assay was performed in 96-well plates at 37.2° C. in a shaking incubator. […]
After incubation for the specified time in a humidified shaking incubator, 20 μL of the reaction mixture was removed and the reactions were terminated by adding […] of cold acetonitrile. […] Formation of 1′-hydroxymidazolam was measured by monitoring a specific SRM (342>203) transition for the CYP3A4 metabolite.
Data were expressed as the relative quantity of midazolam metabolite relative to control incubations. Initial velocities were obtained by multiplying the relative quantity by the initial substrate concentration and dividing by the incubation duration. […]

The target of data set [3] is memapsin 2 (Homo sapiens, UniProt P56817). Description: Inhibition of memapsin 2 beta-secretase activity (fluorogenic substrate FS-2). Type of data set: biochemical. To be noted: pH 4, 37° C., read-out: M2 Ki. How it is done: Potency of compounds were determined by measurement of their inhibition of memapsin 2 activity toward a fluorescent substrate. Kinetic inhibition experiments were performed using the procedure as described in Ermolieff, et al. (Biochemistry 39:12450-12456 (2000), the teachings of which are incorporated hereby in their entirety). Briefly, assays were performed at pH 4, 37° C., by pre-incubation of memapsin 2 enzyme with compound for 20 minutes. Activity measurements were initiated by addition of a fluorogenic substrate FS-2 (Bachem Americas, Torrance, Calif.) MCA-SEVNLDAEFR-DNP (SEQ ID NO.: 2). The substrate was derived from 10 amino acids of the human amyloid precursor protein (APP), with the Swedish variant amino acids at the beta-secretase cleavage site. The terminal amino acid was modified from arginine to lysine to facilitate derivatization with a functional group for detection by autofluorescence. The amino acid sequence of the “core” peptide of the substrate is SEVNLDAEFK (SEQ ID NO.: 3). The amino terminus was derivatized with (7-methoxycoumarin-4-yl)acetyl (MCA), and the epsilon amine of the lysine side chain of the terminal residue (K in sequence SEVNLDAEFK (SEQ ID NO.: 3)) was derivatized with 2,4-dinitrophenyl (DNP).
Sequence of memapsin 2 (Homo sapiens, UniProt P56817) (P56817 46-501): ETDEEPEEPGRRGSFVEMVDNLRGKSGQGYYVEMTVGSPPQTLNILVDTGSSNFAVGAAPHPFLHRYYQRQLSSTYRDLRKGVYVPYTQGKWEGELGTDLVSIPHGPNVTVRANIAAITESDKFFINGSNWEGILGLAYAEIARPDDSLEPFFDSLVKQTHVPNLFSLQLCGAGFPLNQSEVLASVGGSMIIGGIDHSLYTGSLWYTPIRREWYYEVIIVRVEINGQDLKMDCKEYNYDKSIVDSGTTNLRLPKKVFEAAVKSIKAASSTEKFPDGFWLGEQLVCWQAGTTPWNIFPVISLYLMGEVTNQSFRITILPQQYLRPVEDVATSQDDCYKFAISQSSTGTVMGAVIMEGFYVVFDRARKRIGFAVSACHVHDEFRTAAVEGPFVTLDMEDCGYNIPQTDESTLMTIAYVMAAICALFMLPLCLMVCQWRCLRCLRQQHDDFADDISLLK

The target in data set [4] is Cathepsin D (UniProt P07339). As to the kind of experiment: Inhibition of cathepsin D activity (MALDI-TOF, substrate peptide). It is filed as biochemical. The following applies: substrate peptide NH3-ELDLAVEFWHDR-CO2, pH 4.1, 37 degrees C.; read-out: CD Ki.
The nature of data set [5]: Hepatic intrinsic clearance in liver microsomes. The following applies: pH 7.4; human liver microsomes, LC/MS/MS; read-out: HLM CL. Type of data set: in vitro ADME. The protocol: To 500 μl of 200 mM Na^+ K^+ phosphate buffer (pH 7.4), 100 μl of 1 mM EDTA solution was added followed by 100 μl of 2 mg protein/ml human liver microsomes. A 10 μl aliquot of test compound (20 mM stock in 50% acetonitrile) was diluted further with 40 μl of H2O (total assay volume 750 μl. Assay mixture is incubated for 5 minutes at 37° C. The assay was initiated by addition of 250 μl of 4 mM NADPH solution. Incubation was continued at 37° C. Separate reaction mixtures were prepared for 0, 5, 10, 20, and 30 min durations. Individual reactions were halted by addition of 150 μl of 100% acetonitrile. Internal standard (10 μl of 100 ng/ml diazepam solution) was added. Concentration of the test compound in each separate reaction was measured using LC/MS/MS and a standard curve for the test compound according to standard procedures.
The hepatic intrinsic clearance in liver microsome was determined by the following procedure described by Davies and Morris (Davies, B. and Morris, T. (19930) Physiological parameters in laboratory animals and humans. Pharm Res. 10:1093-1095) detailing the relationship of in vitro clearance to physiological parameters in animals and human subjects.
The amount of compound remaining at each time point was expressed relative to the amount present in the initial (0 min) incubation. The relationship of relative amount vs. time was used to determine the half life of the compound in the microsome assay. The concentration independent rate constant, k1, was determined from rectangular hyperbolic fit:
% remaining=100*(e^−k^1^T)
where T is time (in minutes), from the relationship of relative amount vs. time. Alternatively, k1 was determined from a transform of the equation, where
Conversion to in vivo clearance was obtained from the relation (Davies and Morris, 1993):
where v=velocity of metabolism, [S] is the concentration of the compound, and volumes are expressed in mL.

The source of these data is patent US20130059840A1, “SULFONAMIDO PYRROLIDINE COMPOUNDS WHICH INHIBIT BETA-SECRETASE ACTIVITY AND METHODS OF USE THEREOF” (CoMentis, Inc., priority 2009, published 2013).

T1 sequence (G3IAK4 22-501): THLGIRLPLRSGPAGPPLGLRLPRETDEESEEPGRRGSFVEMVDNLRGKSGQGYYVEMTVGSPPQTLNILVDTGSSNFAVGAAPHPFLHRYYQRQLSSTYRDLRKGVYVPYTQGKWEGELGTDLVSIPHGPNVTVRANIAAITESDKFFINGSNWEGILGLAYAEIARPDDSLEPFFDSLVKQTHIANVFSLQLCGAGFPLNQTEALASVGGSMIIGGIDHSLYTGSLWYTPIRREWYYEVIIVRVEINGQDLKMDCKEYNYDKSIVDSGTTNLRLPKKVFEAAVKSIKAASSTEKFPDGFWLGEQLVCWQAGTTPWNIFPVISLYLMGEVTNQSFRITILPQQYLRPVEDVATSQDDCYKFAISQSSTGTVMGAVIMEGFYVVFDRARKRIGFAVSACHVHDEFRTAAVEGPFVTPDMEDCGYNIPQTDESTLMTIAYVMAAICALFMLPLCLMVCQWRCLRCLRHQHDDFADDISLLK

As to `Cc1csc([C@H]2CCCN2C(=O)c2cc(C(=O)N[C@@H](Cc3cc(F)cc(F)c3)[C@H](O)[C@H]3CCCN3)cc(N3CCCCS3(=O)=O)c2)n1` [1-87, N-((1R,2S)-1-hydroxy-3-(3,5-difluorophenyl)-1-((R)-pyrrolidin-2-yl)propan-2-yl)-3-((R)-2-(4-methylthiazol-2-yl)pyrrolidine-1-carbonyl)-5-(thiazinanyl-S,S-dioxide)benzamide], the IC50 in data set [1] was less than 500 nM. The Ki in data set [2] is more than 10 µM; in data set [3], less than 250 nM; in data set [4] it was more than 500 nM. The CLint scaled at 200 μM in data set [5] is less than 400 mL/min/kg.

On to `Cc1csc([C@H]2CCCN2C(=O)c2cc(C(=O)N[C@@H](Cc3ccccc3)[C@H](O)[C@H]3CCCN3)cc(N3CCCCS3(=O)=O)c2)n1` [1-78, N-((1R,2S)-1-hydroxy-3-phenyl-1-((R)-pyrrolidin-2-yl)propan-2-yl)-3-((R)-2-(4-methylthiazol-2-yl)pyrrolidine-1-carbonyl)-5-(thiazinanyl-S,S-dioxide)benzamide], for which the IC50 in data set [1] is less than 500 nM. The compound further had a Ki in data set [2] of more than 10 µM. Further, the CLint scaled at 200 μM in data set [5] is less than 400 mL/min/kg.

In the case of `Cc1csc([C@H]2CCCN2C(=O)c2cc(C(=O)N[C@@H](Cc3cccc(F)c3)[C@H](O)[C@H]3CCCN3)cc(N3CCCS3(=O)=O)c2)n1` [1-91, N-((1R,2S)-1-hydroxy-3-(5-fluorophenyl)-1-((R)-pyrrolidin-2-yl)propan-2-yl)-3-((R)-2-(4-methylthiazol-2-yl)pyrrolidine-1-carbonyl)-5-([1,2]thiazolidyl-S,S-dioxide)benzamide], the 50% inhibitory concentration (IC50) in data set [1] was in the range of 500 to 1000 nM. Further, the Ki in data set [3] is less than 250 nM; in data set [4] it was more than 500 nM. Moreover, the CLint scaled at 200 μM in data set [5] was less than 400 mL/min/kg.

Regarding `Cc1csc([C@H]2CCCN2C(=O)c2cc(C(=O)N[C@@H](Cc3ccccc3)[C@H](O)[C@H]3CCCN3)cc(N3CCCS3(=O)=O)c2)n1` [1-89, N-((1R,2S)-1-hydroxy-3-phenyl-1-((R)-pyrrolidin-2-yl)propan-2-yl)-3-((R)-2-(4-methylthiazol-2-yl)pyrrolidine-1-carbonyl)-5-([1,2]thiazolidyl-S,S-dioxide)benzamide], the 50% inhibitory concentration (IC50) in data set [1] is less than 500 nM. Moreover, the Ki in data set [3] was less than 250 nM; in data set [4], more than 500 nM. In addition, the CLint scaled at 200 μM in data set [5] is less than 400 mL/min/kg.

`Cc1csc([C@H]2CCCN2C(=O)c2cc(C(=O)N[C@@H](Cc3cc(F)cc(F)c3)[C@H](O)[C@H]3CCCN3)cc(N3CCCS3(=O)=O)c2)n1` [1-90, N-((1R,2S)-1-hydroxy-3-(3,5-difluorophenyl)-1-((R)-pyrrolidin-2-yl)propan-2-yl)-3-((R)-2-(4-methylthiazol-2-yl)pyrrolidine-1-carbonyl)-5-([1,2]thiazolidyl-S,S-dioxide)benzamide]: the IC50 in data set [1] is less than 500 nM. Further, the values for the inhibition constant Ki in data set [3] and in data set [4] were less than 250 nM and more than 500 nM, respectively. In addition, in data set [5], the CLint scaled at 200 μM is less than 400 mL/min/kg.
